# Assay results: US20230410977A1, “METHODS AND MATERIALS FOR ASSESSING RADIATION EXPOSURE” (NUtech Ventures, priority 2020, published 2023)
# What was measured:
# [1] = tested on: mice exposed to 9.6 Gy 60Co-γ-radiation; assay: Thirty-day survival of mice given amifostine before 9.6 Gy 60Co-γ-radiation (cohort 3); type: in vivo, mouse
# Experimental: (§1) Cohort three comprised whole blood samples from mice exposed to a single dose of 9.6 Gy ^60Co-γ-radiation at a rate of 0.6 Gy/minute in the presence or absence of drug intervention (50 mg/kg or 200 mg/kg amifostine). A total of 300 blood samples were collected from 60 mice divided into five groups (12 mice per group). The five groups correspond to: (1) amifostine dosage of 50 mg/kg without radiation exposure, (2) amifostine dosage of 200 mg/kg without radiation exposure, (3) amifostine dosage of 50 mg/kg with radiation exposure, (4) amifostine dosage of 200 mg/kg with radiation exposure, and (5) a radiation exposure without an amifostine treatment. Blood samples were collected at five time-points: at day −5 (D−5), at time of amifostine dosage, day −1 (D−1), day 1 (D1), day 5 (D5) and day 9 (D9). Amifostine was delivered through a subcutaneous injection.
# Lastly, to evaluate the radioprotective impact of amifostine treatment, cohort three also contained mice that received a subcutaneous injection of either 50 mg/kg or 200 mg/kg of amifostine 30 minutes (+10 minutes) before exposure to radiation. A total of 300 samples were collected from 60 mice divided into five groups (n=12): (1) 50 mg/kg amifostine treatment without radiation exposure (Am50), (2) 200 mg/kg amifostine treatment without radiation exposure (Am200), (3) only 9.6 Gy radiation exposure (RAD), (4) 9.6 Gy radiation exposure with a 50 mg/kg amifostine treatment (RAD+Am50), and (5) 9.6 Gy radiation exposure with a 200 mg/kg amifostine treatment (RAD+Am200). Serum samples were collected from each group at five different time points. Serum collected at five days and one day prior to radiation exposure were used as controls, and serum samples for metabolomics analysis were collected at 1, 5 and 9 days post-irradiation (Table 1).
# Furthermore, an incremental decrease in survival began at day 11.
# [2] = tested on: mouse whole blood metabolome; assay: Combined NMR and LC-MS metabolomics of mouse whole blood, metabolic time trajectories (cohort 3); type: in vivo; settings: for NMR metabolic time trajectory of whole blood after radiation: PLS Q2 against D−5 baseline
# Experimental: as §1
# Mouse (n=236) and NHP (n=70) serum samples, and mouse blood samples (n=300) were simultaneously prepared for LC-MS and NMR analysis as shown in FIG. 1C. 2.0% by volume of NaN3 was added to each serum or blood sample to avoid bacterial growth. The protein component was precipitated by adding 100 μL (2×) of methanol to 50 μL of serum or blood. Deoxygenated methanol was used for the blood preparation to avoid unnecessary oxidation of the red blood cells. Methanol was purged of oxygen by bubbling in nitrogen gas for 30 minutes.
# The 1:2 mixtures were then vortexed for 10 seconds. Serum samples were incubated at room temperature for 5 minutes. Blood samples were sonicated in a water bath for 10 minutes at 4° C., followed by incubation at −20° C. for 20 minutes. The samples were then centrifuged at 15,000×g for 20 minutes at 4° C. to pellet the proteins. The supernatant was collected, transferred to an Eppendorf tube, and centrifuged again at 15,000×g for 5 minutes at 4° C. The supernatant was then divided 20% and 80% for LC-MS and NMR samples, respectively. Samples were snap-frozen in liquid nitrogen. Methanol was evaporated by speed vacuum centrifugation (SpeedVac R Plus, Savant) and water was removed by lyophilization using FreeZone™ (Labconco, Kansas City, MO).
# Dried serum or blood samples were reconstituted using 50 μL of 50 mM phosphate buffer in 100% D20 at pH 7.2 (uncorrected) with 50 μM TMSP as an NMR chemical shift reference and internal standard. The samples were centrifuged at 15,000×g for 20 minutes at 4° C. to remove any particulates, and the supernatant was transferred to 1.7 mm NMR tube for data acquisition. All NMR experiments were collected at 298K with a Bruker AVANCE III HD 700 MHz spectrometer equipped with a 5 mm quadruple resonance QCI-P cryoprobe (^1H, ^13C, ^15N and ^31P) with z-axis gradients. A SampleJet automated sample changer with Bruker ICON-NMR software was used to collect all data. […]
smiles,measurement,setting,value
"NCCCNCCSP(=O)(O)O [amifostine, 2-(3-aminpropyl) aminoethylphosphorothioate]",survival at 30 days post-irradiation,"[1]; amifostine 50 mg/kg subcutaneous, 30 minutes before 9.6 Gy, untreated irradiated animals 100% died",40%
same,day at which incremental decrease in survival began,"[1]; amifostine 50 mg/kg, 9.6 Gy",11 days
same,animal survival 30 days post-irradiation,"[1]; amifostine 200 mg/kg subcutaneous, 30 minutes prior to 9.6 Gy, untreated irradiated animals 100% died",100%
same,NMR metabolic time trajectory of whole blood after radiation,"[2]; amifostine 50 mg/kg, 9.6 Gy",could not be discriminated from untreated controls
same,NMR metabolic time trajectory of whole blood after radiation,"[2]; amifostine 200 mg/kg, 9.6 Gy, p=1.60×10^−7",reversed progression back towards the baseline norm (D−5) by D9
same,recovery of dysregulated metabolic pathways,"[2]; amifostine 200 mg/kg, between D5 and D9 after radiation exposure","recovery of pathways including lipid metabolism, glycolysis, and TCA activity as well as energy and amino acid metabolism"
same,LC-MS metabolic time trajectory of whole blood after radiation,"[2]; amifostine treatment, 9.6 Gy, p=2.10×10^−2",divergence of trajectories from D5 to D9
